The values below come from patent US20250304596A1, “PYRAZINE DERIVATIVES AND USES THEREOF” (FOGHORN THERAPEUTICS INC., priority 2022, published 2025).

Experiment [1] addresses T1, HiBit-BRG1 fusion protein (Homo sapiens, UniProt P51532).
T1 construct: expressed in transfected cells
Put plainly: HiBiT-BRG1 cell-based degradation assay (Nano-Glo HiBiT Lytic Detection, 24 h). Particulars: stable HeLa cell line expressing HiBit-BRG1 and LgBit; for Dmax: read-out: BRG1 HiBit Degradation Maximum (%); for DC50: read-out: BRMG1 HiBit Degradation IC50. Here is the method: (§1) Procedure: A stable HeLa cell line expressing HiBiT-BRM was generated. On day 0, 5000 cells were seeded in 40 μL of media into each well of 384-well cell culture plates. On day 1, cells were treated with 120 nL DMSO or 120 nL of 3-fold serially DMSO-diluted compounds (10 points in duplicate with 30 μM as final top dose). Subsequently plates were incubated for 24 h in a standard tissue culture incubator and equilibrated at room temperature for 15 minutes. Nano-Glo HiBiT Lytic Detection System (Promega N3050) reagent was freshly prepared and 20 ul was added to each well. Upon addition of this LgBit-containing reagent, the HiBiT and LgBiT proteins associate to form the luminescent NanoBiT Iuciferase. The plates were shaken for 10 minutes at room temperature and the bioluminescence read using an EnVision plate reader (PerkinElmer).
For measurement of BRG1 degradation, a stable HeLa cell line expressing HiBit-BRG1 and LgBit was generated. The same protocol as above was then followed.
(§2) The degradation % was calculated using the following formula: % degradation=100%-100%×(LumSample−LumLC)/(LumHC−LumLC). DMSO treated cells are employed as High Control (HC) and 2 μM of a known BRM/BRG1 degrader standard treated cells are employed as Low Control (LC).

The target in another experiment is T2, HiBit-BRM fusion protein (Homo sapiens, UniProt P51531).
T2 construct: expressed in transfected cells
T2 sequence (P51531 whole entry, the tested form may be a part): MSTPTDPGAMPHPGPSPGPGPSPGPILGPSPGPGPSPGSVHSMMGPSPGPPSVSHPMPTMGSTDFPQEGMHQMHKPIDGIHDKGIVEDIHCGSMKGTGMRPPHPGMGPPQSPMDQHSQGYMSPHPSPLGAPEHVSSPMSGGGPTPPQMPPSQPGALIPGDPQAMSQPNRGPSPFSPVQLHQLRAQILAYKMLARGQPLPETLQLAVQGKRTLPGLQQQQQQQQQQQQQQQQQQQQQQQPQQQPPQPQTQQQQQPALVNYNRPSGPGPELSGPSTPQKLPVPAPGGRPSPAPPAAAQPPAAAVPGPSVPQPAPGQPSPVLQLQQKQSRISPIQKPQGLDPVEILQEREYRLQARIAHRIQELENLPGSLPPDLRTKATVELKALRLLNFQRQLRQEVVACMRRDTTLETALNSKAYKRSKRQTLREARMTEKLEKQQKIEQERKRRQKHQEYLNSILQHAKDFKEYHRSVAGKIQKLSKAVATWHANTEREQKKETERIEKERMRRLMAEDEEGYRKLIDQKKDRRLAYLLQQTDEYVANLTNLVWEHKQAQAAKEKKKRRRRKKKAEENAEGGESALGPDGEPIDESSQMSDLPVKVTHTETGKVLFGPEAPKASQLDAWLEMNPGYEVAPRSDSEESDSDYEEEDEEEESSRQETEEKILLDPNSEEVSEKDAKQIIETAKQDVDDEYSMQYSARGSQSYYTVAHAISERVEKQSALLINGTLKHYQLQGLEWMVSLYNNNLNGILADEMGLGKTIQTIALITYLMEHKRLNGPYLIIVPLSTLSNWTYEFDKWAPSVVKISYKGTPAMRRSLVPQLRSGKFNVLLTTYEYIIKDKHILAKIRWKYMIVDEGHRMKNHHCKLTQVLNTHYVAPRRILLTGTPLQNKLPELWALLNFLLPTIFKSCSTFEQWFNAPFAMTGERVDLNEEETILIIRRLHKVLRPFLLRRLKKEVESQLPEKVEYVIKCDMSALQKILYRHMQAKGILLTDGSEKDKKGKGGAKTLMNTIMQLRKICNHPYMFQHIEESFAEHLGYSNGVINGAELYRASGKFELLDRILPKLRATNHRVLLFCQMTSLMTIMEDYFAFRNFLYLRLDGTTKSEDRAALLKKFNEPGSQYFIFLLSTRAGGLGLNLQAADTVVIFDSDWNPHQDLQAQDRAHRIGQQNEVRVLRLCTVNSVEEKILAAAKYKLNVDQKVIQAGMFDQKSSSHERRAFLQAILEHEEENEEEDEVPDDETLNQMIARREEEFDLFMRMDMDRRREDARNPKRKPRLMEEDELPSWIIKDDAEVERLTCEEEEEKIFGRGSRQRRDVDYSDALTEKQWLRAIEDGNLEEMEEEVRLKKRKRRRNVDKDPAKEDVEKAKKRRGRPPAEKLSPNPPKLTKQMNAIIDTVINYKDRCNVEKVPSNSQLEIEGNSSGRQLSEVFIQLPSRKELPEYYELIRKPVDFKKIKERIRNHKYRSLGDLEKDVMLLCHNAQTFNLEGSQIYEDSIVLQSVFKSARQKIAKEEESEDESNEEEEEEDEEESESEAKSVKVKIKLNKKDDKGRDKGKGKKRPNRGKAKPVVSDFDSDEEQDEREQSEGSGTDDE
In words: HiBiT-BRM cell-based degradation assay (Nano-Glo HiBiT Lytic Detection, 24 h). To be noted: stable HeLa cell line expressing HiBiT-BRM; for DC50: read-out: BRM HiBit Degradation IC50. How it is done: as §1, §2
A general note: HiBiT is a short tag that completes a luciferase, so light tracks the accessible tagged protein.

Structures are written as SMILES.

T1 sequence (P51532 whole entry, the tested form may be a part): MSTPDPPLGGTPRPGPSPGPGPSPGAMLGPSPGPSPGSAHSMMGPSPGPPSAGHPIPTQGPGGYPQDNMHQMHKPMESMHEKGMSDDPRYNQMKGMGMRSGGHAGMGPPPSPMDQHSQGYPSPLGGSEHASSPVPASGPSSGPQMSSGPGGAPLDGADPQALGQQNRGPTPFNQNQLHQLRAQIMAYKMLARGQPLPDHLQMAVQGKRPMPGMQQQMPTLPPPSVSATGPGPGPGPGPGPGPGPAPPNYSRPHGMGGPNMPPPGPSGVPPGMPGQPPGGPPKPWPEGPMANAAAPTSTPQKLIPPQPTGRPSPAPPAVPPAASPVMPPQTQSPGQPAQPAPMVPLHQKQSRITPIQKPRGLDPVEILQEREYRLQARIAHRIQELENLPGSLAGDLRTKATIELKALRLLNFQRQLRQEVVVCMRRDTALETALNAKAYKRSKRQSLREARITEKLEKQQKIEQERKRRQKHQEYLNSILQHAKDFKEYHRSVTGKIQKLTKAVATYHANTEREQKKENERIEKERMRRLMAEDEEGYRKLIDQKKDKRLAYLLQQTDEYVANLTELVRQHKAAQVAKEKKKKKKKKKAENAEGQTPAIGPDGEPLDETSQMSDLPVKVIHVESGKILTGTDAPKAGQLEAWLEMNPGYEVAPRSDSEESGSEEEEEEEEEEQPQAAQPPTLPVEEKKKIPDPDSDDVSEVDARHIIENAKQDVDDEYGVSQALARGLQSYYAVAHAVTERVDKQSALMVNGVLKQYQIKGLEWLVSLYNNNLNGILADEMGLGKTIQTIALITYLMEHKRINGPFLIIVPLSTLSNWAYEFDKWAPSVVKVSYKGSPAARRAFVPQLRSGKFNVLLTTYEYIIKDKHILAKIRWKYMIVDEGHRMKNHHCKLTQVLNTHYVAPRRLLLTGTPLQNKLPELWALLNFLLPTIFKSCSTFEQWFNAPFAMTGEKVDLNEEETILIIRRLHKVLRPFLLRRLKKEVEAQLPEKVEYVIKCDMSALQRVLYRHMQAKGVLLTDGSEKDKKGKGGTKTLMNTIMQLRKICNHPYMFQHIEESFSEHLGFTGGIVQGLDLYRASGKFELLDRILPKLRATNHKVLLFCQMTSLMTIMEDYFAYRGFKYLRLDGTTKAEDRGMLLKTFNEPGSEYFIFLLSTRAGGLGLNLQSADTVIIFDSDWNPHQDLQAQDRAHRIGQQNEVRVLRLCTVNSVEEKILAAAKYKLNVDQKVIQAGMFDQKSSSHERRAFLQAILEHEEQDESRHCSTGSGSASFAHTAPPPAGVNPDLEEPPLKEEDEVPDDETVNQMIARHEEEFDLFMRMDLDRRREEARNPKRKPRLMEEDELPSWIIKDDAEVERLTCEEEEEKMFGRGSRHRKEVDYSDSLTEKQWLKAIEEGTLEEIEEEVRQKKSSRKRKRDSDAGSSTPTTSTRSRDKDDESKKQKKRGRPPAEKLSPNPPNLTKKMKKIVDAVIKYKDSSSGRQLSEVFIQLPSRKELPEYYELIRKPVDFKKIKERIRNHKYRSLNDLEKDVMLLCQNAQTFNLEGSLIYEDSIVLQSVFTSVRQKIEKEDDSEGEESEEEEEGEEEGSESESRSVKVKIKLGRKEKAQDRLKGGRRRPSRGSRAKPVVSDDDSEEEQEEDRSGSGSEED

As to `Cc1ncsc1-c1ccc([C@H](C)NC(=O)[C@@H]2C[C@@H](O)CN2C(=O)[C@@H](c2cc(N3CCC4(CC3)CC(c3sc5nnc(-c6ccccc6O)cc5c3C)C4)no2)C(C)C)cc1` [Compound 45, (2S,4R)-4-hydroxy-1-((R)-2-(3-(2-(3-(2-hydroxyphenyl)-5-methylthieno[2,3-c]pyridazin-6-yl)-7-azaspiro[3.5]nonan-7-yl)isoxazol-5-yl)-3-methylbutanoyl)-N-((S)-1-(4-(4-methylthiazol-5-yl)phenyl)ethyl)pyrrolidine-2-carboxamide], in experiment [1], the Dmax was less than 50% and the DC50 was greater than 1000 nM. At HiBit-BRM fusion protein, the “BRM HiBit Degradation Maximum (%)” value was “A (“A” indicates maximum degradation ≥75%)” and the DC50 was greater than 10 nM.
In the case of `Cc1ncsc1-c1ccc([C@H](C)NC(=O)[C@@H]2C[C@@H](O)CN2C(=O)[C@@H](c2cc(N3CC4(CCC(c5sc6nnc(-c7ccccc7O)cc6c5C)CC4)C3)no2)C(C)C)cc1` [Compound 88, (2S,4R)-4-hydroxy-1-((R)-2-(3-(7-(3-(2-hydroxyphenyl)-5-methylthieno[2,3-c]pyridazin-6-yl)-2-azaspiro[3.5]nonan-2-yl)isoxazol-5-yl)-3-methylbutanoyl)-N-((S)-1-(4-(4-methylthiazol-5-yl)phenyl)ethyl)pyrrolidine-2-carboxamide], in experiment [1], the Dmax was greater than 75% and the DC50 is greater than 10 nM. Further, at HiBit-BRM fusion protein, the “BRM HiBit Degradation Maximum (%)” value is on record as “A (“A” indicates maximum degradation ≥75%)” and the DC50 was less than 10 nM.
For the compound `Cc1ncsc1-c1ccc([C@H](C)NC(=O)[C@@H]2C[C@@H](O)CN2C(=O)[C@@H](c2cc(-c3cnc(N4CC[C@@H](c5sc6nnc(-c7ccccc7O)cc6c5C)[C@H](C)C4)nc3)no2)C(C)C)cc1` [Compound 25, (2S,4R)-4-hydroxy-1-((R)-2-(3-(2-((3S,4R)-4-(3-(2-hydroxyphenyl)-5-methylthieno[2,3-c]pyridazin-6-yl)-3-methylpiperidin-1-yl)pyrimidin-5-yl)isoxazol-5-yl)-3-methylbutanoyl)-N-((S)-1-(4-(4-methylthiazol-5-yl)phenyl)ethyl)pyrrolidine-2-carboxamide], in experiment [1], the Dmax was less than 50% and the DC50 is greater than 1000 nM. In addition, on HiBit-BRM fusion protein, the “BRM HiBit Degradation Maximum (%)” value was “A (“A” indicates maximum degradation ≥75%)” and the DC50 is greater than 10 nM.
Taken in the same sequence, the figures for `Cc1ncsc1-c1ccc([C@H](C)NC(=O)[C@@H]2C[C@@H](O)CN2C(=O)[C@@H](c2cc(-c3cnc(N4CCC5(CC4)CC(c4sc6nnc(-c7ccccc7O)cc6c4C)C5)nc3)no2)C(C)C)cc1` [Compound 48, (2S,4R)-4-hydroxy-1-((R)-2-(3-(2-(2-(3-(2-hydroxyphenyl)-5-methylthieno[2,3-c]pyridazin-6-yl)-7-azaspiro[3.5]nonan-7-yl)pyrimidin-5-yl)isoxazol-5-yl)-3-methylbutanoyl)-N-((S)-1-(4-(4-methylthiazol-5-yl)phenyl)ethyl)pyrrolidine-2-carboxamide] were less than 50%, greater than 1000 nM, “A (“A” indicates maximum degradation ≥75%)” and greater than 10 nM.
In the case of `Cc1ncsc1-c1ccc([C@H](C)NC(=O)[C@@H]2C[C@@H](O)CN2C(=O)[C@@H](c2cc(-c3ccc(N4CC(c5sc6nnc(-c7ccccc7O)cc6c5C)C4)nc3)no2)C(C)C)cc1` [Compound 49, (2S,4R)-4-hydroxy-1-((R)-2-(3-(6-(3-(3-(2-hydroxyphenyl)-5-methylthieno[2,3-c]pyridazin-6-yl)azetidin-1-yl)pyridin-3-yl)isoxazol-5-yl)-3-methylbutanoyl)-N-((S)-1-(4-(4-methylthiazol-5-yl)phenyl)ethyl)pyrrolidine-2-carboxamide], in experiment [1], the Dmax was less than 50% and the DC50 is greater than 1000 nM. For the same compound, on HiBit-BRM fusion protein, the “BRM HiBit Degradation Maximum (%)” value is on record as “B (“B” indicates maximum degradation ≥50%)” and the DC50 is greater than 10 nM.
Taken in the same sequence, the figures for `Cc1ncsc1-c1ccc([C@H](C)NC(=O)[C@@H]2C[C@@H](O)CN2C(=O)[C@@H](c2cc(-c3cnc(N4CC[C@H](c5sc6nnc(-c7ccccc7O)cc6c5C)C[C@@H]4C)nc3)no2)C(C)C)cc1` [Compound 27, (2S,4R)-4-hydroxy-1-((R)-2-(3-(2-((2S,4S)-4-(3-(2-hydroxyphenyl)-5-methylthieno[2,3-c]pyridazin-6-yl)-2-methylpiperidin-1-yl)pyrimidin-5-yl)isoxazol-5-yl)-3-methylbutanoyl)-N-((S)-1-(4-(4-methylthiazol-5-yl)phenyl)ethyl)pyrrolidine-2-carboxamide] were less than 50%, greater than 1000 nM, “A (“A” indicates maximum degradation ≥75%)” and less than 10 nM.
The matching figures for `Cc1ncsc1-c1ccc([C@H](C)NC(=O)[C@@H]2C[C@@H](O)CN2C(=O)[C@@H](c2cc(N3CCC4(CC3)CC(c3cc5cc(-c6ccccc6O)nnc5s3)C4)no2)C(C)C)cc1` [Compound 98, (2S,4R)-4-hydroxy-1-((R)-2-(3-(2-(3-(2-hydroxyphenyl)thieno[2,3-c]pyridazin-6-yl)-7-azaspiro[3.5]nonan-7-yl)isoxazol-5-yl)-3-methylbutanoyl)-N-((S)-1-(4-(4-methylthiazol-5-yl)phenyl)ethyl)pyrrolidine-2-carboxamide]: greater than 75%, greater than 100 nM, “A (“A” indicates maximum degradation ≥75%)” and greater than 10 nM.
For the compound `Cc1ncsc1-c1ccc([C@H](C)NC(=O)[C@@H]2C[C@@H](O)CN2C(=O)[C@@H](c2cc(N3CCC4(CCC(c5sc6nnc(-c7ccccc7O)cc6c5C)CC4)CC3)no2)C(C)C)cc1` [Compound 85, (2S,4R)-4-hydroxy-1-((R)-2-(3-(9-(3-(2-hydroxyphenyl)-5-methylthieno[2,3-c]pyridazin-6-yl)-3-azaspiro[5.5]undecan-3-yl)isoxazol-5-yl)-3-methylbutanoyl)-N-((S)-1-(4-(4-methylthiazol-5-yl)phenyl)ethyl)pyrrolidine-2-carboxamide], the Dmax in experiment [1] is less than 50%. On HiBit-BRM fusion protein, the “BRM HiBit Degradation Maximum (%)” value is on record as “A (“A” indicates maximum degradation ≥75%)” and the DC50 is greater than 10 nM.
As to `Cc1nc(N2CCC(c3sc4nnc(-c5ccccc5O)cc4c3C)CC2)ccc1-c1noc([C@H](C(=O)N2C[C@H](O)C[C@H]2C(=O)N[C@@H](C)c2ccc(-c3scnc3C)cc2)C(C)C)c1C` [Compound 92, (2S,4R)-4-hydroxy-1-((R)-2-(3-(6-(4-(3-(2-hydroxyphenyl)-5-methylthieno[2,3-c]pyridazin-6-yl)piperidin-1-yl)-2-methylpyridin-3-yl)-4-methylisoxazol-5-yl)-3-methylbutanoyl)-N-((S)-1-(4-(4-methylthiazol-5-yl)phenyl)ethyl)pyrrolidine-2-carboxamide], in experiment [1], the Dmax is greater than 75% and the DC50 is greater than 10 nM. At HiBit-BRM fusion protein, the “BRM HiBit Degradation Maximum (%)” value was “A (“A” indicates maximum degradation ≥75%)” and the DC50 was less than 10 nM.
In the case of `Cc1ncsc1-c1ccc([C@H](C)NC(=O)[C@@H]2C[C@@H](O)CN2C(=O)[C@@H](c2cc(N3CC[C@H](c4cc5nnc(-c6ccccc6O)cc5s4)C3)no2)C(C)C)cc1` [Compound 73, (2S,4R)-4-hydroxy-1-((R)-2-(3-((S)-3-(3-(2-hydroxyphenyl)thieno[3,2-c]pyridazin-6-yl)pyrrolidin-1-yl)isoxazol-5-yl)-3-methylbutanoyl)-N-((S)-1-(4-(4-methylthiazol-5-yl)phenyl)ethyl)pyrrolidine-2-carboxamide], in experiment [1], the Dmax was less than 50%. At HiBit-BRM fusion protein, the “BRM HiBit Degradation Maximum (%)” value is given as “A (“A” indicates maximum degradation ≥75%)” and the DC50 is less than 10 nM.
Turning to `Cc1ncsc1-c1ccc([C@H](C)NC(=O)[C@@H]2C[C@@H](O)CN2C(=O)[C@@H](c2cc(-c3cnc(N4CC(c5sc6nnc(-c7ccccc7O)cc6c5C)C4)nc3)no2)C(C)C)cc1` (single isomer, unassigned) [Compound 63], in experiment [1], the Dmax is less than 50% and the DC50 was greater than 1000 nM. Also, on HiBit-BRM fusion protein, the “BRM HiBit Degradation Maximum (%)” value is given as “A (“A” indicates maximum degradation ≥75%)” and the DC50 is less than 10 nM.
The matching figures for `Cc1ncsc1-c1ccc([C@H](C)NC(=O)[C@@H]2C[C@@H](O)CN2C(=O)[C@@H](c2cc(-c3cnc(N4CC[C@@H](c5sc6nnc(-c7ccccc7O)cc6c5C)C[C@H]4C)nc3)no2)C(C)C)cc1` [Compound 30, (2S,4R)-4-hydroxy-1-((R)-2-(3-(2-((2R,4R)-4-(3-(2-hydroxyphenyl)-5-methylthieno[2,3-c]pyridazin-6-yl)-2-methylpiperidin-1-yl)pyrimidin-5-yl)isoxazol-5-yl)-3-methylbutanoyl)-N-((S)-1-(4-(4-methylthiazol-5-yl)phenyl)ethyl)pyrrolidine-2-carboxamide]: less than 50%, greater than 1000 nM, “A (“A” indicates maximum degradation ≥75%)” and less than 10 nM.
